Measurements reported in patent US20080319065A1, “Systemic and Intrathecal Effects of a Novel Series of Phospholipase A2 Inhibitors on Hyperalgesia and Spinal Pge2 Release” (The Regents of the University of California, priority 2005, published 2008).

Assays:
[1] = target: T1, GVIA PLA2 (Homo sapiens, UniProt O60733); experiment: Time dependence and reversibility of GVIA PLA2 inhibition; type: biochemical
T1 sequence (O60733 1-806): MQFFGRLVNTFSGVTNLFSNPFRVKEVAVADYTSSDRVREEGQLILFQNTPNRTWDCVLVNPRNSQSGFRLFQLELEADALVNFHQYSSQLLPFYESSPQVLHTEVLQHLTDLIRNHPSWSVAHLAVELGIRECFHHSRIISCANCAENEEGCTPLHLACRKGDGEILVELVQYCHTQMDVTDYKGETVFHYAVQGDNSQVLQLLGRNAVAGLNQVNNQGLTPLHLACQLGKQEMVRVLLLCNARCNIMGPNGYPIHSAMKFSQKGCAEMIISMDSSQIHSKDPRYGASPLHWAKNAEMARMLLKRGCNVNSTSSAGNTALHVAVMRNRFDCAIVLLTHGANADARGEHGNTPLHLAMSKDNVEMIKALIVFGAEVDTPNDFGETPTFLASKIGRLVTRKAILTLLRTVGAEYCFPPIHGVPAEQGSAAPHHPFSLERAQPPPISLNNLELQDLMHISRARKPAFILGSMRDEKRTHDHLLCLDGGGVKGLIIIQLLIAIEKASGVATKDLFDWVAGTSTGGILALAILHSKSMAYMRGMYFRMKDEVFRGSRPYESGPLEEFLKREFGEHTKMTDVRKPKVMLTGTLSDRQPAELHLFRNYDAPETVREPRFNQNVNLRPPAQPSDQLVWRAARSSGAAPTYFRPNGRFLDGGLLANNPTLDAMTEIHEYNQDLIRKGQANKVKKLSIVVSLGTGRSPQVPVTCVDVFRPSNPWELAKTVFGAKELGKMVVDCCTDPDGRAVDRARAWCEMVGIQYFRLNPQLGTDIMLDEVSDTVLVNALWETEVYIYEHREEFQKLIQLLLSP
Description: GVIA PLA2 (25 ng) was preincubated with either AX010 or AX0073 (5 μM) for 0, 5, 15 or 30 minutes and then assayed in the standard GVIA PLA2 assay mix containing 5 μM inhibitor. The final concentration of the inhibitors in the assay mix was 0.01 mole fraction, and the samples were incubated for 30 minutes at 40° C. […] In the latter respect, 25 ng of GVIA PLA2 was pre-incubated with 10 μM AX010 or AX073 for 10 minutes before diluting the enzyme 1:50 into the standard GVIA PLA2 assay mix lacking inhibitor, and incubating for 30 minutes at 40° C. The final inhibitor concentration in these assays was 0.0004 mole fraction, well below surface concentrations that either AX010 or AX073 inhibit the enzyme.

[2] = tested on: carrageenan-induced thermal hyperalgesia; experiment: Carrageenan-induced thermal hyperalgesia, paw withdrawal latency; type: in vivo, rat
From the text: Male Holtzman Sprague-Dawley rats (300-350 g; Harlan Industries) were individually housed and maintained on a 12-hr light/dark cycle with free access to food and water. For spinal drug injections, lumbar catheters were implanted in rats under isoflurane anesthesia according to a modification of the procedure described by Yaksh (Yaksh and Rudy, supra, 1976). A polyethylene catheter (PE-5; Spectranetics, 0.014 in OD) was inserted into the intrathecal space and advanced to the rostral edge of the lumbar enlargement through an incision in the atlanto-occipital membrane. Five days after implantation rats were entered into the study. In separate experiments to assess spinal prostaglandins release, rats were prepared with lumbar loop dialysis catheters with three lumens, as previously described, see (Yaksh, et al., supra, 2001). Thermal hyperalgesia. Two approaches were employed to initiate a hyperalgesic state. An inflammation-evoked thermal hyperalgesia was induced by subcutaneous injection of 2 mg of carrageenan (Sigma, St. Louis, Mo., 100 μl of […] solution (w/v) in physiological saline) into the plantar surface of the left hind paw. To assess the thermally-evoked paw-withdrawal response, a commercially available device modeled after that described by Hargreaves and colleagues (Hargreaves, Pain, 32:77-88, 1988) was used (see, Dirig and Yaksh, Neurosci. Lett., 220:93-96, 1996; Dirig, et al., J. Neurosci. Methods, 76:183-191, 1997). In brief, the device consisted of a glass surface (maintained at 25° C.) on which the rats are placed individually in Plexiglas cubicles (9×22×25 cm). The thermal nociceptive stimulus originated from a focused projection bulb positioned below the glass surface. The stimulus was delivered separately to either hind paw of each test subject with the aid of an angled mirror mounted on the stimulus source. A timer was actuated with the light source, and latency was defined as the time required for the paw to show a brisk withdrawal as detected by photodiode motion sensors that stop the timer and terminate the stimulus. Paw withdrawal latencies (PWL) were assessed prior to any treatment (control) and at intervals after treatment. Left (injured) and right (uninjured) paw withdrawal latencies were assessed and plotted versus time. In addition, difference latency scores (uninjured-injured) were calculated and the average withdrawal latency over the post-injection observation intervals are calculated for comparison between treatment groups. Drugs were delivered systemically (IP) or spinally (IT). Intraperitoneal drugs were delivered uniformly in doses prepared in volumes of 0.5 ml/kg. Drugs injected IT were administered in a total volume of […] followed by a 10 μl flush using vehicle.

[3] = target: T2, GV sPLA2 (Homo sapiens, UniProt P39877); experiment: GV sPLA2 activity assay; type: biochemical; details: at 0.091 mole fraction
T2 sequence (P39877 21-138): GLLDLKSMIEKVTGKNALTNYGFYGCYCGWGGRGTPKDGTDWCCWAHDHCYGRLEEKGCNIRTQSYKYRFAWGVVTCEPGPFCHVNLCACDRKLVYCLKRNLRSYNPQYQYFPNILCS

Row | SMILES | reversibility of GVIA PLA2 inhibition ([1]; pre-incubated with 10 μM for 10 minutes, diluted 1:50, final 0.0004 mole fraction) | time-dependent inhibition of GVIA PLA2 ([1]; preincubated 0, 5, 15 or 30 minutes, 5 μM inhibitor, 0.01 mole fraction) | antihyperalgesic effect by pretreatment interval ([2]; 3 mg/kg IP, 15 min before carrageenan) | antihyperalgesic effect by pretreatment interval ([2]; 3 mg/kg IP, 30 min before carrageenan) | reduction of carrageenan thermal hyperalgesia ([2]; 3 mg/kg IP, 30 min pretreatment) | antihyperalgesic effect by pretreatment interval ([2]; 3 mg/kg IP, 180 min before carrageenan) | antihyperalgesic effect by pretreatment interval ([2]; 3 mg/kg IP, 360 min before carrageenan) | dose dependency of anti-hyperalgesic effect ([2]; IP, 0.2-3 mg/kg) | ED50 ([2]; Rattus norvegicus, IP, carrageenan thermal hyperalgesia, read-out: IP ED50, dose that reduced the hyperalgesia by 50%) [mg/kg] | attenuation of carrageenan thermal hyperalgesia ([2]; intrathecal 30 μg/10 μL, 15 min pretreatment) | efficacy against sPLA2 [3] [%]
1 | CCC(=O)C(=O)NCCCC(=O)OC [AX010] | freely reversible inhibitors | no increased potency with prolonged incubation | – | – | – | – | – | – | – | – | –
2 | CCCCCCCCCCCCCCC(=O)C(=O)NCCCC(=O)OCC [AX048, Ethyl 4-[(2-oxohexadecanoyl)amino]butanoate] | – | – | minimal effects | peak effects | reduced the thermal hyperalgesia | effects persisted | no different from the control | dose-dependent | 1.2 | attenuated the thermal hyperalgesia | 61.5
